Columns and labels:
[1] = AUC(last) in cynomolgus monkey at 250 mg/kg, po; type: ADME, organism-based, Macaca fascicularis; set-up: time 0 - last, dose 250 mg/kg, route oral; conditions: plasma
[2] = AUC(last) in Sprague-Dawley rat at 75 mg/kg, po; type: ADME, organism-based; set-up: time 0 - last, dose 75 mg/kg, route oral; conditions: plasma
[3] = AUC(last) in Sprague-Dawley rat at 250 mg/kg, po; type: ADME, organism-based; set-up: time 0 - last, dose 250 mg/kg, route oral; conditions: plasma
[4] = Cmax in beagle dog at 75 mg/kg, po; type: ADME, organism-based, Canis lupus familiaris; set-up: dose 75 mg/kg, route oral; conditions: in vivo
[5] = Volume of distribution at steady state in cynomolgus monkey at 1 mg/kg, iv; type: ADME, organism-based, Macaca fascicularis; set-up: dose 1 mg/kg, route intravenous; conditions: in vivo, read-out: Vdss
[6] = Oral bioavailability in beagle dog at 5 mg/kg; type: ADME, organism-based, Canis lupus familiaris; conditions: in vivo
[7] = AUC(last) in beagle dog at 5 mg/kg, po; type: ADME, organism-based, Canis lupus familiaris; set-up: time 0 - last, dose 5 mg/kg, route oral; conditions: plasma
[8] = Tmax in cynomolgus monkey at 75 mg/kg, po; type: ADME, organism-based, Macaca fascicularis; set-up: dose 75 mg/kg, route oral; conditions: in vivo
[9] = Plasma concentration in Sprague-Dawley rat at 5 mg/kg, po measured 4 hrs post dose; type: ADME, organism-based; set-up: dose 5 mg/kg, route oral
[10] = Tmax in Sprague-Dawley rat at 5 mg/kg, po formulated with 5%MC, 95% saline; type: ADME, organism-based; set-up: dose 5 mg/kg, route oral; conditions: in vivo
[11] = Oral bioavailability in Sprague-Dawley rat at 5 mg/kg; type: ADME, organism-based; conditions: in vivo
[12] = Cmax in Sprague-Dawley rat at 250 mg/kg, po; type: ADME, organism-based; set-up: dose 250 mg/kg, route oral; conditions: in vivo
[13] = Cmax in beagle dog at 250 mg/kg, po; type: ADME, organism-based, Canis lupus familiaris; set-up: dose 250 mg/kg, route oral; conditions: in vivo
[14] = Cmax in Sprague-Dawley rat at 5 mg/kg, po formulated with 5%MC, 95% saline; type: ADME, organism-based; set-up: dose 5 mg/kg, route oral; conditions: in vivo
[15] = Half life in cynomolgus monkey at 1 mg/kg, iv; type: ADME, organism-based, Macaca fascicularis; set-up: dose 1 mg/kg, route intravenous; conditions: in vivo
Hepatitis C virus [16] = test: Antiviral activity against HCV genotype 1a infected in human HuH7 cells by luciferase reporter gene assay; type: functional, cell-based, Hepacivirus hominis; conditions: subtype 1a, Huh-7
[17] = Cmax in cynomolgus monkey at 250 mg/kg, po; type: ADME, organism-based, Macaca fascicularis; set-up: dose 250 mg/kg, route oral; conditions: in vivo
[18] = Oral bioavailability in cynomolgus monkey at 5 mg/kg; type: ADME, organism-based, Macaca fascicularis; conditions: in vivo
Hepatitis C virus [19] = test: Antiviral activity against HCV genotype 3a infected in human HuH7 cells by luciferase reporter gene assay; type: functional, cell-based, Hepacivirus hominis; conditions: Huh-7
Hepatitis C virus [20] = test: Antiviral activity against HCV genotype 6a infected in human HuH7 cells by luciferase reporter gene assay; type: functional, cell-based, Hepacivirus hominis; conditions: Huh-7
[21] = Oral bioavailability in Sprague-Dawley rat at 5 mg/kg formulated with 5%MC, 95% saline; type: ADME, organism-based; conditions: in vivo
Hepatitis C virus [22] = test: Antiviral activity against HCV genotype 5a infected in human HuH7 cells by luciferase reporter gene assay; type: functional, cell-based, Hepacivirus hominis; conditions: Huh-7
[23] = Tmax in beagle dog at 5 mg/kg, po; type: ADME, organism-based, Canis lupus familiaris; set-up: dose 5 mg/kg, route oral; conditions: in vivo
Hepatitis C virus [24] = test: Antiviral activity against HCV genotype 4a infected in human HuH7 cells by luciferase reporter gene assay; type: functional, cell-based, Hepacivirus hominis; conditions: Huh-7
[25] = AUC(last) in cynomolgus monkey at 5 mg/kg, po; type: ADME, organism-based, Macaca fascicularis; set-up: time 0 - last, dose 5 mg/kg, route oral; conditions: plasma
[26] = AUC(last) in beagle dog at 250 mg/kg, po; type: ADME, organism-based, Canis lupus familiaris; set-up: dose 250 mg/kg, route oral, time 0 - last; conditions: plasma
[27] = AUC(last) in beagle dog at 75 mg/kg, po; type: ADME, organism-based, Canis lupus familiaris; set-up: time 0 - last, dose 75 mg/kg, route oral; conditions: plasma
Hepatitis C virus [28] = test: Antiviral activity against HCV genotype 1b infected in human HuH7 cells by luciferase reporter gene assay; type: functional, cell-based, Hepacivirus hominis; conditions: Huh-7
[29] = AUC(last) in beagle dog at 1 mg/kg, iv; type: ADME, organism-based, Canis lupus familiaris; set-up: time 0 - last, dose 1 mg/kg, route intravenous; conditions: plasma
[30] = Cmax in cynomolgus monkey at 5 mg/kg, po; type: ADME, organism-based, Macaca fascicularis; set-up: dose 5 mg/kg, route oral; conditions: in vivo
[31] = Tmax in cynomolgus monkey at 5 mg/kg, po; type: ADME, organism-based, Macaca fascicularis; set-up: dose 5 mg/kg, route oral; conditions: in vivo
[32] = AUC(last) in cynomolgus monkey at 75 mg/kg, po; type: ADME, organism-based, Macaca fascicularis; set-up: time 0 - last, dose 75 mg/kg, route oral; conditions: plasma
[33] = Tmax in beagle dog at 250 mg/kg, po; type: ADME, organism-based, Canis lupus familiaris; set-up: dose 250 mg/kg, route oral; conditions: in vivo
[34] = Half life in Sprague-Dawley rat at 1 mg/kg, iv; type: ADME, organism-based; set-up: dose 1 mg/kg, route intravenous; conditions: in vivo
[35] = Clearance in Sprague-Dawley rat at 1 mg/kg, iv; type: ADME, organism-based; set-up: dose 1 mg/kg, route intravenous; conditions: Sprague-Dawley, in vivo
[36] = Tmax in Sprague-Dawley rat at 75 mg/kg, po; type: ADME, organism-based; set-up: dose 75 mg/kg, route oral; conditions: in vivo
[37] = AUC(last) in cynomolgus monkey at 1 mg/kg, iv; type: ADME, organism-based, Macaca fascicularis; set-up: time 0 - last, dose 1 mg/kg, route intravenous; conditions: plasma
[38] = Cmax in Sprague-Dawley rat at 5 mg/kg, po; type: ADME, organism-based; set-up: dose 5 mg/kg, route oral; conditions: in vivo
[39] = Volume of distribution at steady state in beagle dog at 1 mg/kg, iv; type: ADME, organism-based, Canis lupus familiaris; set-up: dose 1 mg/kg, route intravenous; conditions: in vivo, read-out: Vdss
[40] = Drug level in Sprague-Dawley rat liver at 5 mg/kg, po measured 4 hrs post dose; type: ADME, organism-based; set-up: dose 5 mg/kg, route oral; conditions: read-out: Drug uptake
[41] = Cmax in Sprague-Dawley rat at 75 mg/kg, po; type: ADME, organism-based; set-up: dose 75 mg/kg, route oral; conditions: in vivo
[42] = Cmax in beagle dog at 5 mg/kg, po; type: ADME, organism-based, Canis lupus familiaris; set-up: dose 5 mg/kg, route oral; conditions: in vivo
[43] = Clearance in beagle dog at 1 mg/kg, iv; type: ADME, organism-based, Canis lupus familiaris; set-up: dose 1 mg/kg, route intravenous; conditions: in vivo
[44] = Clearance in cynomolgus monkey at 1 mg/kg, iv; type: ADME, organism-based, Macaca fascicularis; set-up: dose 1 mg/kg, route intravenous; conditions: in vivo
[45] = Half life in beagle dog at 1 mg/kg, iv; type: ADME, organism-based, Canis lupus familiaris; set-up: dose 1 mg/kg, route intravenous; conditions: in vivo
[46] = AUC(last) in Sprague-Dawley rat at 5 mg/kg, po; type: ADME, organism-based; set-up: dose 5 mg/kg, route oral, time 0 - last; conditions: plasma
[47] = Tmax in beagle dog at 75 mg/kg, po; type: ADME, organism-based, Canis lupus familiaris; set-up: dose 75 mg/kg, route oral; conditions: in vivo
[48] = Tmax in cynomolgus monkey at 250 mg/kg, po; type: ADME, organism-based, Macaca fascicularis; set-up: dose 250 mg/kg, route oral; conditions: in vivo
[49] = Cmax in cynomolgus monkey at 75 mg/kg, po; type: ADME, organism-based, Macaca fascicularis; set-up: dose 75 mg/kg, route oral; conditions: in vivo
[50] = Volume of distribution at steady state in Sprague-Dawley rat at 1 mg/kg, iv; type: ADME, organism-based; set-up: dose 1 mg/kg, route intravenous; conditions: in vivo, read-out: Vdss
[51] = Tmax in Sprague-Dawley rat at 250 mg/kg, po; type: ADME, organism-based; set-up: dose 250 mg/kg, route oral; conditions: in vivo
[52] = AUC(last) in Sprague-Dawley rat at 1 mg/kg, iv; type: ADME, organism-based, Plasma; set-up: time 0 - last, dose 1 mg/kg, route intravenous; conditions: Sprague-Dawley, plasma
[53] = Tmax in Sprague-Dawley rat at 5 mg/kg, po; type: ADME, organism-based; set-up: dose 5 mg/kg, route oral; conditions: in vivo
[54] = AUC(last) in Sprague-Dawley rat at 5 mg/kg, po formulated with 5%MC, 95% saline; type: ADME, organism-based; set-up: time 0 - last, dose 5 mg/kg, route oral; conditions: plasma

COC(=O)N[C@H](C(=O)N1CCC[C@H]1c1ncc(-c2ccc3c(c2)Oc2ccc(-c4cnc([C@@H]5CCCN5C(=O)[C@@H](NC(=O)OC)C(C)C)[nH]4)cc2C3(C)C)[nH]1)C(C)C
AUC(0-t) [1]: 46600 ng·h/mL | AUC(0-t) [2]: 137000 ng·h/mL | AUC(0-t) [3]: 187000 ng·h/mL | Cmax [4]: 6400 ng/mL | Vd [5]: 1.33 L/kg | bioavailability [6]: 53.4% | AUC(0-t) [7]: 16500 ng·h/mL | Tmax [8]: 3 h | concentration at 4 h [9]: 833 ng/mL | Tmax [10]: 0.5 h | bioavailability [11]: 112% | Cmax [12]: 16200 ng/mL | Cmax [13]: 12200 ng/mL | Cmax [14]: 761 ng/mL | half-life [15]: 3.56 h | EC50 (Hepatitis C virus [16]): 0.073 nM | Cmax [17]: 8100 ng/mL | bioavailability [18]: 28.4% | EC50 (Hepatitis C virus [19]): 0.29 nM | EC50 (Hepatitis C virus [20]): 0.062 nM | bioavailability [21]: 88.9% | EC50 (Hepatitis C virus [22]): 0.017 nM | Tmax [23]: 1 h | EC50 (Hepatitis C virus [24]): 0.025 nM | AUC(0-t) [25]: 3370 ng·h/mL | AUC(0-t) [26]: 192000 ng·h/mL | AUC(0-t) [27]: 83000 ng·h/mL | EC50 (Hepatitis C virus [28]): 0.011 nM | AUC(0-t) [29]: 6180 ng·h/mL | Cmax [30]: 486 ng/mL | Tmax [31]: 3 h | AUC(0-t) [32]: 17800 ng·h/mL | Tmax [33]: 5 h | half-life [34]: 1.41 h | clearance [35]: 17.8 mL/min/kg | Tmax [36]: 4 h | AUC(0-t) [37]: 2380 ng·h/mL | Cmax [38]: 874 ng/mL | Vd [39]: 0.74 L/kg | concentration at 4 h [40]: 2610 ng/mL | Cmax [41]: 12400 ng/mL | Cmax [42]: 2760 ng/mL | clearance [43]: 2.67 mL/min/kg | clearance [44]: 7 mL/min/kg | half-life [45]: 3.77 h | AUC(0-t) [46]: 5250 ng·h/mL | Tmax [47]: 4 h | Tmax [48]: 4 h | Cmax [49]: 3600 ng/mL | Vd [50]: 1.8 L/kg | Tmax [51]: 3.33 h | AUC(0-t) [52]: 926 ng·h/mL | Tmax [53]: 3 h | AUC(0-t) [54]: 4120 ng·h/mL

— ChEMBL document CHEMBL3351732, “Potent bisimidazole-based HCV NS5A inhibitors bearing annulated tricyclic motifs” (Bioorg Med Chem Lett, 2014)
